Source: patent US12421254B2, “KRAS modulators and uses thereof” (Quanta Therapeutics, Inc., priority 2023, dated 2025)

How the values were obtained:
[1] = target: GST-tagged KRAS-G12D (2-169) (Homo sapiens, UniProt P01116, G12D); assay: Nucleotide exchange assay (NEA), SOS-mediated, HTRF, KRAS G12D; assay type: biochemical; details: Table 4; IC50 extracted at 30 min; 20 nM SOScat; read-out: NEA G12D IC50
Procedure, shortened: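 Compound preincubated 1 h at RT with 0.25 nM GST-KRAS-G12D (2-169) and anti-GST Tb donor, then 20 nM SOS1cat (564-1049) and 150 nM GTP-DY-647P1 added; pH 7.3 HEPES buffer with MgCl2 and DTT. HTRF monitored at RT; % inhibition versus DMSO and no-SOS blank, 4-parameter IC50 taken at 30 min.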

[2] = target: GST-tagged KRAS-G12V (2-169) (Homo sapiens, UniProt P01116, G12V); assay: Nucleotide exchange assay (NEA), SOS-mediated, HTRF, KRAS G12V; assay type: biochemical; details: Table 4; IC50 extracted at 90 min; 80 nM SOS
Procedure, shortened: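 GST-KRAS-G12V (2-169), 0.25 nM, pre-incubated 1 h at RT with compound, then SOS1cat (564-1049) 80 nM and GTP-DY-647P1 150 nM added in HEPES pH 7.3 buffer with MgCl2 and DTT. HTRF via anti-GST Tb cryptate read over 90 min; IC50 from 4-parameter fit at 90 min, blanked to no-SOS reactions.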

[3] = test system: phospho-ERK in SW620 (KRAS-G12V) cells; assay: pERK In Cell Western (ICW) assay (Method B), SW620; assay type: cell-based; details: Homo sapiens, SW-620, 3 h, Table 4
Experimental: pERK ICW is a high throughput screening assay to evaluate the cellular potency of mutant KRAS small molecule inhibitors. KRAS mutant cell lines AGS, GP2D (KRAS-G12D) as well as SW620 (KRAS-G12V) were purchased from ATCC and maintained respectively in RPMI/DMEM/RPMI medium supplemented with 10% fetal bovine serum.
Cells grown in exponential phase were trypsinized, resuspended in fresh media, and viable cells were counted using a cell counter with Trypan Blue (BioRad TC20). Cells were seeded into 384-well plate (Greiner 781091) at density of 5,000 cells/well for AGS and 10,000 cells/well for GP2D/SW620 and allowed to grow overnight in a 37° C. CO2 incubator. The next day, compounds were dispensed into wells with a ½ log, 9-point serial dilution using a Tecan D300e dispenser and incubated for 3 hours in a 37° C. CO2 incubator. Cells were then fixed with paraformaldehyde (Electron Microscopy Sciences, 15710, 4% final concentration) for 30 min, permeabilized with wash buffer (1×PBS+0.1% Triton X-100) for 30 min and blocked with Odyssey blocking buffer (Li—COR 927-70001) for 1 hour, all at room temperature (RT). Phospho-ERK antibody (CST 4370L) was diluted 1:500 in Odyssey T20 (PBS) antibody diluent (Li—COR 927-75001) and incubated with cells overnight at 4° C. The next day, plates were washed 5× with wash buffer, incubated with IRDye 800 CW, Goat anti-Rabbit secondary antibody (Li—COR 926-32211, 1:800) and DRAQ5 (CST 4084L, 1:5,000) diluted in Odyssey T20 (PBS) antibody diluent for 1 hour, washed 5×, and imaged on an Odyssey CLx imaging system.
For data analysis, signal intensities from 800 (phosphor-ERK) and 700 (DRAQ5) channels were extracted, and phospho-ERK signals were normalized to DRAQ5 signals for each well and percent of blank control values were computed. Data were then imported into Graphpad Prism to compute half-maximal inhibitory concentrations (IC50) using a 4-parameter variable slope model. Z-factor for each plate was computed from signals derived from wells treated with either DMSO or 5 μM of control compound. AGS pERK ICW (Method B) IC50 (uM) values of selected compounds are depicted in Table 2 with compounds having a value ≥0.001 uM to 0.01 uM as ++++; ≥0.01 uM to 0.1 uM as +++; ≥0.1 uM to 1 uM as ++; ≥1 uM to 10 uM as + and ≥10 uM as NA.

Chain of GST-tagged KRAS-G12D (2-169) (P01116 2-169 isoform P01116-2 G12D): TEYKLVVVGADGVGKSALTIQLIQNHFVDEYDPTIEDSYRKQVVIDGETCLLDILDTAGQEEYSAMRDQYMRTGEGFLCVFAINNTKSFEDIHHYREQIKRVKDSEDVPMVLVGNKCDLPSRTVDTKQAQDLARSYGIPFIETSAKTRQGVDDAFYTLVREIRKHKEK
Chain of GST-tagged KRAS-G12V (2-169) (P01116 2-169 isoform P01116-2 G12V): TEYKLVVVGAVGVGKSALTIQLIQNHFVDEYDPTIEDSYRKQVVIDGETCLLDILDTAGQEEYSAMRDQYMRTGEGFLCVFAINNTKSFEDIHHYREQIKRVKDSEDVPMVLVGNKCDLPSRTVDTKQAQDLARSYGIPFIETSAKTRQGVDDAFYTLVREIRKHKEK

SMILES	IC50 [1]	IC50 [2]	IC50 [3]
N#Cc1c(N)sc2c1C1(CN(c3nc(OC[C@@]45CCCN4C[C@H](F)C5)nc(N(CCO)C4(C#N)CC4)n3)C1)SC2 (racemic) [Compound 240, 2-amino-1′-[4-[(1-cyanocyclopropyl)-(2-hydroxyethyl)amino]-6-[[rac-(2R,8S)-2-fluoro-1,2,3,5,6,7-hexahydropyrrolizin-8-yl]methoxy]-1,3,5-triazin-2-yl]spiro[6H-thieno[3,4-b]thiophene-4,3′-azetidine]-3-carbonitrile]	< 10 nM	< 10 nM	10 to 100 nM
CC1(O)CCCN(c2nc(OCC34CCCN3C(COc3cc(C(F)(F)F)ncn3)CC4)nc(N3CC4(C3)SCc3sc(N)c(C#N)c34)n2)C1 (single isomer, unassigned) [Compound 256A]	< 10 nM	< 10 nM	100 to 1000 nM
C[C@H](c1cccnc1N)N(C)c1nc(OC[C@@]23CCCN2C[C@H](F)C3)nc(N2CCC(c3c(Cl)sc(N)c3C#N)C2)n1 (stereo partly drawn) [Compound 191, 2-amino-4-[1-[4-[[(1R)-1-(2-amino-3-pyridyl)ethyl]-methyl-amino]-6-[[(2R,8S)-2-fluoro-1,2,3,5,6,7-hexahydropyrrolizin-8-yl]methoxy]-1,3,5-triazin-2-yl]pyrrolidin-3-yl]-5-chloro-thiophene-3-carbonitrile]	10 to 100 nM	< 10 nM	10 to 100 nM
N#Cc1c(N)sc2c1C1(CN(c3nc(OC[C@@]45CCCN4C[C@H](F)C5)nc(N4[C@H]5CC[C@]4(CO)COC5)n3)C1)SC2 [Compound 200, 2′-amino-1-(4-(((2R,7aS)-2-fluorotetrahydro-1H-pyrrolizin-7a(5H)-yl)methoxy)-6-((1S,5S)-1-(hydroxymethyl)-3-oxa-8-azabicyclo[3.2.1]octan-8-yl)-1,3,5-triazin-2-yl)-6′H-spiro[azetidine-3,4′-thieno[3,4-b]thiophene]-3′-carbonitrile]	10 to 100 nM	< 10 nM	100 to 1000 nM
CCN(c1nc(OC[C@@]23CCCN2C[C@H](F)C3)nc(N2CC3(C2)SCc2sc(N)c(C#N)c23)n1)[C@H](C)C(N)=O [Compound 235, (2R)-2-[[4-(2-amino-3-cyano-spiro[6H-thieno[3,4-b]thiophene-4,3′-azetidine]-1′-yl)-6-[[(2R,8S)-2-fluoro-1,2,3,5,6,7-hexahydropyrrolizin-8-yl]methoxy]-1,3,5-triazin-2-yl]-ethyl-amino]propanamide]	< 10 nM	< 10 nM	100 to 1000 nM
CCN(c1nc(OC[C@@]23CCCN2C[C@H](F)C3)nc(N2CC3(C2)SCc2sc(N)c(C#N)c23)n1)[C@H](C)C#N [Compound 236, 2-amino-1′-[4-[[(1R)-1-cyanoethyl]-ethyl-amino]-6-[[(2R,8S)-2-fluoro-1,2,3,5,6,7-hexahydropyrrolizin-8-yl]methoxy]-1,3,5-triazin-2-yl]spiro[6H-thieno[3,4-b]thiophene-4,3′-azetidine]-3-carbonitrile; formic acid]	< 10 nM	< 10 nM	10 to 100 nM
CCN(CC#N)c1nc(OC[C@@]23CCCN2C[C@H](F)C3)nc(N2CC3(C2)SCc2sc(N)c(C#N)c23)n1 [Compound 237, 2-amino-1′-[4-[cyanomethyl(ethyl)amino]-6-[[(2R,8S)-2-fluoro-1,2,3,5,6,7-hexahydropyrrolizin-8-yl]methoxy]-1,3,5-triazin-2-yl]spiro[6H-thieno[3,4-b]thiophene-4,3′-azetidine]-3-carbonitrile]	< 10 nM	< 10 nM	10 to 100 nM
CCN(c1nc(OC[C@@]23CCCN2C[C@H](F)C3)nc(N2CC3(C2)SCc2sc(N)c(C#N)c23)n1)C1(C#N)CC1 [Compound 238, 2-amino-1′-[4-[(1-cyanocyclopropyl)-ethyl-amino]-6-[[(2R,8S)-2-fluoro-1,2,3,5,6,7-hexahydropyrrolizin-8-yl]methoxy]-1,3,5-triazin-2-yl]spiro[6H-thieno[3,4-b]thiophene-4,3′-azetidine]-3-carbonitrile]	< 10 nM	< 10 nM	10 to 100 nM
N#Cc1c(N)sc2c1C1(CN(c3nc(OC[C@@]45CCCN4C[C@H](F)C5)nc(N(CCO)CC4(C#N)CC4)n3)C1)SC2 [Compound 239, 2-amino-1′-[4-[(1-cyanocyclopropyl)methyl-(2-hydroxyethyl)amino]-6-[[(2R,8S)-2-fluoro-1,2,3,5,6,7-hexahydropyrrolizin-8-yl]methoxy]-1,3,5-triazin-2-yl]spiro[6H-thieno[2,3-c]thiophene-4,3′-azetidine]-3-carbonitrile]	< 10 nM	< 10 nM	100 to 1000 nM
CCN(CC1(C#N)CC1)c1nc(OC[C@@]23CCCN2C[C@H](F)C3)nc(N2CC3(C2)SCc2sc(N)c(C#N)c23)n1 [Compound 241, 2-amino-1′-[4-[(1-cyanocyclopropyl)methyl-ethyl-amino]-6-[[(2R,8S)-2-fluoro-1,2,3,5,6,7-hexahydropyrrolizin-8-yl]methoxy]-1,3,5-triazin-2-yl]spiro[6H-thieno[2,3-c]thiophene-4,3′-azetidine]-3-carbonitrile]	< 10 nM	< 10 nM	100 to 1000 nM
N#Cc1c(N)sc2c1C1(CN(c3nc(OC[C@@]45CCCN4C[C@H](F)C5)nc(N(CC(=O)O)C4(C#N)CC4)n3)C1)SC2 [Compound 259, 2-[[4-(2-amino-3-cyano-spiro[6H-thieno[3,4-b]thiophene-4,3′-azetidine]-1′-yl)-6-[[(2R,8S)-2-fluoro-1,2,3,5,6,7-hexahydropyrrolizin-8-yl]methoxy]-1,3,5-triazin-2-yl]-(1-cyanocyclopropyl)amino]acetic acid]	–	–	1000 to 20000 nM
N#Cc1c(N)sc2c1C1(CN(c3nc(OC[C@@]45CCCN4C[C@H](F)C5)nc(N4CC5CC(=O)CC(C4)N5)n3)C1)SC2 [Compound 277, 2-amino-1′-[4-[[(2R,8S)-2-fluoro-1,2,3,5,6,7-hexahydropyrrolizin-8-yl]methoxy]-6-(7-oxo-3,9-diazabicyclo[3.3.1]nonan-3-yl)-1,3,5-triazin-2-yl]spiro[6H-thieno[3,4-b]thiophene-4,3′-azetidine]-3-carbonitrile]	10 to 100 nM	< 10 nM	–
C[C@H](c1cccnc1N)N(C)c1nc(OC[C@@]23CCCN2C[C@H](F)C3)nc(N2CC3(CCc4cnn(C)c43)C2)n1 [Compound 278, N-[(1R)-1-(2-amino-3-pyridyl)ethyl]-4-[[(2R,8S)-2-fluoro-1,2,3,5,6,7-hexahydropyrrolizin-8-yl]methoxy]-N-methyl-6-(1-methylspiro[4,5-dihydrocyclopenta[d]pyrazole-6,3′-azetidine]-1′-yl)-1,3,5-triazin-2-amine]	1000 to 20000 nM	1000 to 20000 nM	–
CN(C)CC1(COc2nc(N3CCOCC(C)(O)C3)nc(N3CC4(C3)SCc3sc(N)c(C#N)c34)n2)CC1(F)F (stereo not drawn) [Compound 281, 2-amino-1′-[4-[[1-[(dimethylamino)methyl]-2,2-difluoro-cyclopropyl]methoxy]-6-(6-hydroxy-6-methyl-1,4-oxazepan-4-yl)-1,3,5-triazin-2-yl]spiro[6H-thieno[3,4-b]thiophene-4,3′-azetidine]-3-carbonitrile]	< 10 nM	< 10 nM	–
N#Cc1c(N)sc2c1C1(CN(c3nc(OC[C@@]45CCCN4C[C@H](F)C5)nc(N4CCC5(CC4)COC5=O)n3)C1)SC2 [Compound 283, 2-amino-1′-[4-[[(2R,8S)-2-fluoro-1,2,3,5,6,7-hexahydropyrrolizin-8-yl]methoxy]-6-(3-oxo-2-oxa-7-azaspiro[3.5]nonan-7-yl)-1,3,5-triazin-2-yl]spiro[6H-thieno[3,4-b]thiophene-4,3′-azetidine]-3-carbonitrile]	100 to 1000 nM	100 to 1000 nM	–
